In PubChem BioAssay AID248 (DTP/NCI, 2004):
Several values for one entry are separate records, joined by “and”; a condition that tells them apart may be missing. Equal values may be shown once. Toxic doses and inconclusive results are not listed. Cut-off read from the data, not from the text of the source: active = T/C of 150% or more; inactive = T/C below 125%.

Test system: L1210 leukemia ip in BDF1 mice, survival T/C
Assay: NCI In Vivo Anticancer Drug Screen. Data for tumor model L1210 Leukemia (intraperitoneal) in B6D2F1 (BDF1) mice
Details: endpoint: mean survival time, higher = longer survival
Outline: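 Tumor cells were implanted, animals were treated, and survival was followed. The result divides the treated measurement by the vehicle-control measurement.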

[1] = dose: 100.0 mg/kg/injection, schedule: Q01DX001 (ip), vehicle: Klucel (hydroxypropylcellulose) (HPC)
[2] = dose: 100.0 mg/kg/injection, schedule: Q01DX009 (ip), vehicle: saline with Tween-80
[3] = dose: 200.0 mg/kg/injection, schedule: Q01DX001 (ip), vehicle: Klucel (hydroxypropylcellulose) (HPC)
[4] = dose: 200.0 mg/kg/injection, schedule: Q01DX009 (ip), vehicle: saline with Tween-80
[5] = dose: 100.0 mg/kg/injection, schedule: Q01DX009 (ip), vehicle: Klucel (hydroxypropylcellulose) (HPC)
[6] = dose: 200.0 mg/kg/injection, schedule: Q01DX009 (ip), vehicle: Klucel (hydroxypropylcellulose) (HPC)
[7] = dose: 400.0 mg/kg/injection, schedule: Q01DX009 (ip), vehicle: Klucel (hydroxypropylcellulose) (HPC)
[8] = dose: 50.0 mg/kg/injection, schedule: Q01DX009 (ip), vehicle: saline with Tween-80
[9] = dose: 5.0 mg/kg/injection, schedule: Q01DX001 (ip), vehicle: saline
[10] = dose: 10.0 mg/kg/injection, schedule: Q01DX001 (ip), vehicle: saline
[11] = dose: 20.0 mg/kg/injection, schedule: Q01DX001 (ip), vehicle: saline
[12] = dose: 25.0 mg/kg/injection, schedule: Q04DX003 (ip), vehicle: Klucel (hydroxypropylcellulose) (HPC)
[13] = dose: 25.0 mg/kg/injection, schedule: Q04DX002 (ip), vehicle: saline with Tween-80
[14] = dose: 50.0 mg/kg/injection, schedule: Q04DX002 (ip), vehicle: saline with Tween-80
[15] = dose: 100.0 mg/kg/injection, schedule: Q01DX001 (ip), vehicle: carboxymethylcellulose (CMC)
[16] = dose: 200.0 mg/kg/injection, schedule: Q01DX001 (ip), vehicle: carboxymethylcellulose (CMC)
[17] = dose: 400.0 mg/kg/injection, schedule: Q01DX001 (ip), vehicle: carboxymethylcellulose (CMC)
[18] = dose: 100.0 mg/kg/injection, schedule: Q04DX003 (ip), vehicle: Klucel (hydroxypropylcellulose) (HPC)

Measured: T/C

CCOC(=O)CCC(NC(=O)c1cc(Cl)c(N(C)S(=O)(=O)c2ccc(C)cc2)cc1Cl)C(=O)OCC (stereo not drawn)
inactive: [1] 107 % of control | [2] 94 % of control | [3] 108 % of control | [4] 97 % of control | dose: 400.0 mg/kg/injection, schedule: Q01DX001 (ip), vehicle: Klucel (hydroxypropylcellulose) (HPC) 102 % of control | dose: 400.0 mg/kg/injection, schedule: Q01DX009 (ip), vehicle: saline with Tween-80 94 % of control

CC(=O)N(C)c1ccc(NC(=O)/C=C/c2ccccc2)cc1
inactive: [5] 95 % of control | [6] 101 % of control | [7] 105 % of control

O=C(CNC(=O)Nc1nccs1)N/N=C/c1ccc(Cl)cc1
inactive: [8] 106 % of control | [2] 89 % of control

c1ccc(C[P+](c2ccccc2)(c2ccccc2)c2ccccc2)cc1
inactive: dose: 3.13 mg/kg/injection, schedule: Q01DX009 (ip), vehicle: Klucel (hydroxypropylcellulose) (HPC) 106 % of control | dose: 5.0 mg/kg/injection, schedule: Q01DX001 (ip), vehicle: saline with Tween-80 98 % of control | [9] 105 % of control | dose: 5.0 mg/kg/injection, schedule: Q01DX009 (ip), vehicle: saline with Tween-80 95 % of control | dose: 6.25 mg/kg/injection, schedule: Q01DX009 (ip), vehicle: Klucel (hydroxypropylcellulose) (HPC) 102 % of control and 95 % of control | dose: 10.0 mg/kg/injection, schedule: Q01DX001 (ip), vehicle: saline with Tween-80 92 % of control | [10] 100 % of control | dose: 10.0 mg/kg/injection, schedule: Q01DX009 (ip), vehicle: saline with Tween-80 87 % of control | dose: 12.5 mg/kg/injection, schedule: Q01DX009 (ip), vehicle: Klucel (hydroxypropylcellulose) (HPC) 107 % of control and 96 % of control and 110 % of control | dose: 12.5 mg/kg/injection, schedule: Q04DX003 (ip), vehicle: Klucel (hydroxypropylcellulose) (HPC) 102 % of control | dose: 20.0 mg/kg/injection, schedule: Q01DX001 (ip), vehicle: saline with Tween-80 90 % of control | [11] 96 % of control | dose: 25.0 mg/kg/injection, schedule: Q01DX009 (ip), vehicle: Klucel (hydroxypropylcellulose) (HPC) 89 % of control | [12] 102 % of control | dose: 40.0 mg/kg/injection, schedule: Q01DX001 (ip), vehicle: saline 105 % of control

CCNC(=O)Oc1c(Cl)cc(S(=O)(=O)F)cc1Cl
inactive: dose: 12.5 mg/kg/injection, schedule: Q01DX009 (ip), vehicle: saline with Tween-80 90 % of control | dose: 12.5 mg/kg/injection, schedule: Q04DX002 (ip), vehicle: saline with Tween-80 93 % of control | dose: 25.0 mg/kg/injection, schedule: Q01DX009 (ip), vehicle: saline with Tween-80 103 % of control | [13] 101 % of control | [14] 96 % of control

Cc1ccc(N(CCO)CCO)cc1NC(=O)c1ccccc1
inactive: [15] 103 % of control | [16] 101 % of control | [17] 101 % of control

CC(C)(CCl)COS(=O)(=O)c1ccc(Br)cc1
inactive: [8] 90 % of control | [2] 90 % of control

CC(C)=C(CO)CCC(C)C
inactive: [8] 100 % of control | [2] 94 % of control | [4] 89 % of control

CCCCCC/C=N/NC(=O)c1ccc[n+](C)c1
inactive: [8] 93 % of control | [2] 100 % of control | [4] 100 % of control

O=C1CCC2CCC(CC2)O1
inactive: [9] 119 % of control | [10] 92 % of control | [11] 97 % of control

O=c1[nH]c(SCc2cccc([N+](=O)[O-])c2)nc2nc[nH]c12
inactive: dose: 50.0 mg/kg/injection, schedule: Q01DX001 (ip), vehicle: Klucel (hydroxypropylcellulose) (HPC) 96 % of control | [1] 100 % of control | [3] 107 % of control

C[n+]1ccc(/C=C/c2ccnc3c(O)cccc23)c2ccccc21
inactive: dose: 15.0 mg/kg/injection, schedule: Q01DX001 (ip), vehicle: saline 112 % of control

c1ccc(C/C(N=Nc2ccccc2)=N\Nc2ccccc2)cc1
inactive: dose: 50.0 mg/kg/injection, schedule: Q01DX009 (ip), vehicle: Klucel (hydroxypropylcellulose) (HPC) 92 % of control | [5] 92 % of control | [6] 91 % of control | [7] 105 % of control

O=C(Nc1ccc(Cl)cc1)Oc1c(Cl)cc(Cl)c(Cl)c1[N+](=O)[O-]
inactive: dose: 100.0 mg/kg/injection, schedule: Q04DX002 (ip), vehicle: gum acacia 94 % of control | dose: 200.0 mg/kg/injection, schedule: Q04DX002 (ip), vehicle: gum acacia 88 % of control

CSc1ccc(NC(=O)CCCc2ccc(N(CCCl)CCCl)cc2)cc1
inactive: dose: 4.0 mg/kg/injection, schedule: Q12HX018 (ip), vehicle: other 103 % of control | dose: 6.0 mg/kg/injection, schedule: Q12HX018 (ip), vehicle: other 108 % of control | dose: 8.0 mg/kg/injection, schedule: Q12HX018 (ip), vehicle: other 115 % of control

CC1(CO)COC2(CCCCC2)N1 (stereo not drawn)
inactive: dose: 75.0 mg/kg/injection, schedule: Q01DX001 (ip), vehicle: saline 102 % of control | dose: 150.0 mg/kg/injection, schedule: Q01DX001 (ip), vehicle: saline 92 % of control | dose: 300.0 mg/kg/injection, schedule: Q01DX001 (ip), vehicle: saline 96 % of control

CCOC(=O)C1=NN(c2ccccc2)C(=O)C1N=Nc1ccc(S(=O)(=O)Nc2ccccn2)cc1 (stereo not drawn)
inactive: dose: 100.0 mg/kg/injection, schedule: Q01DX001 (ip), vehicle: saline 102 % of control | dose: 200.0 mg/kg/injection, schedule: Q01DX001 (ip), vehicle: saline 96 % of control | dose: 400.0 mg/kg/injection, schedule: Q01DX001 (ip), vehicle: saline 93 % of control

O=C(O)c1ccc(NC(C[N+](=O)[O-])C(F)(F)C(F)(F)C(F)(F)F)cc1 (stereo not drawn)
inactive: [12] 103 % of control | dose: 50.0 mg/kg/injection, schedule: Q04DX003 (ip), vehicle: Klucel (hydroxypropylcellulose) (HPC) 93 % of control | dose: 100.0 mg/kg/injection, schedule: Q01DX009 (ip), vehicle: saline sonified 95 % of control | [18] 103 % of control and 115 % of control | dose: 200.0 mg/kg/injection, schedule: Q01DX009 (ip), vehicle: saline sonified 86 % of control | dose: 200.0 mg/kg/injection, schedule: Q04DX003 (ip), vehicle: Klucel (hydroxypropylcellulose) (HPC) 102 % of control | dose: 400.0 mg/kg/injection, schedule: Q01DX009 (ip), vehicle: saline sonified 88 % of control | dose: 400.0 mg/kg/injection, schedule: Q04DX003 (ip), vehicle: Klucel (hydroxypropylcellulose) (HPC) 100 % of control

CCCCCCCCC(Br)C(Br)CCCCCCCC(=O)O (stereo not drawn)
inactive: [13] 93 % of control | [14] 96 % of control

O=[N+]([O-])c1ccccc1Nc1ccccc1
inactive: [15] 91 % of control | [16] 89 % of control | [17] 91 % of control

CC(C)(C)COC(=O)CCN1CC1
inactive: dose: 20.0 mg/kg/injection, schedule: Q01DX009 (ip), vehicle: Klucel (hydroxypropylcellulose) (HPC) 119 % of control | dose: 20.0 mg/kg/injection, schedule: Q04DX003 (ip), vehicle: Klucel (hydroxypropylcellulose) (HPC) 103 % of control | dose: 40.0 mg/kg/injection, schedule: Q01DX009 (ip), vehicle: Klucel (hydroxypropylcellulose) (HPC) 97 % of control | dose: 40.0 mg/kg/injection, schedule: Q04DX003 (ip), vehicle: Klucel (hydroxypropylcellulose) (HPC) 114 % of control | dose: 80.0 mg/kg/injection, schedule: Q04DX003 (ip), vehicle: Klucel (hydroxypropylcellulose) (HPC) 101 % of control | [18] 110 % of control

CCOC(=O)c1c(Cl)c(Cl)c(Cl)c(Cl)c1C(=O)O
inactive: dose: 100.0 mg/kg/injection, schedule: Q01DX001 (ip), vehicle: saline with Tween-80 95 % of control | [2] 96 % of control | dose: 200.0 mg/kg/injection, schedule: Q01DX001 (ip), vehicle: saline with Tween-80 97 % of control | [4] 102 % of control | dose: 400.0 mg/kg/injection, schedule: Q01DX001 (ip), vehicle: saline with Tween-80 115 % of control
